In patent US6914045B2, “Glycopeptide antibiotics” (Wyeth Holdings Corporation, priority 2001, dated 2005):

Assays:
Test in all cases: in vitro antibacterial evaluation, MIC by broth dilution
Format in all cases: cell-based
[1] = system: Enterococcus sp.; conditions: broth dilution, 18 hours at 35° C.
Experimental: (§1) Methods for in vitro Antibacterial Evaluation (Table 1)
(§2) The minimum inhibitory concentration (MIC), the lowest concentration of the antibiotic which inhibits growth of the test organism, is determined by the broth dilution method using Muller-Hinton II […] (Baltimore Biological Laboratories) following the recommendations of the National Committee for Clinical Laboratory Standards [Methods for dilution antimicrobial susceptibility tests for bacteria that grow aerobically, approved standard M7-A2, National Committee for Clinical Laboratory Standards, Villanova, Pa.].
(§3) An inoculum level of 5×10^5 CFU/mL, and a range of antibiotic concentrations (64-0.06 μg/mL) is used. […] The test organisms include a spectrum of Gram-positive bacteria comprised of Staphylococcus sp., Streptococcus sp. and Enterococcus sp. These organisms include recent clinical isolates that are resistant to methicillin, penicillin and/or vancomycin.

[2] = system: Staphylococcus sp.; conditions: broth dilution, 18 hours at 35° C.; for MIC Staphylococcus aureus (GC 1131): strain GC 1131
Experimental: as §1, §2, §3

[3] = system: Streptococcus sp.; conditions: broth dilution, 18 hours at 35° C.
Experimental: as §1, §2, §3

[4] = system: Escherichia coli; conditions: 18 hours at 35° C.

N=C1NCC(C(O)C2NC(=O)C(Cc3ccc(OC4OC(CO)C(OC5OC6COC(CCc7ccccc7)OC6C(O)C5O)C(O)C4O)cc3)NC(=O)C(CC3CCCCC3)NC(=O)CNC(=O)C(CO)NC(=O)C(C(O)C3CNC(=N)N3C3OC(CO)C(O)C(O)C3O)NC2=O)N1 (stereo not shown) [Example 198]
32 µg/mL: MIC Escherichia coli (ATCC 25922) [4] | MIC Escherichia coli (GC 4559) [4]
0.5 µg/mL: MIC Staphylococcus aureus (ATCC 29213) ([2]; strain ATCC 29213) | MIC Staphylococcus aureus (GC 3051) ([2]; strain GC 3051) | MIC Staphylococcus aureus (GC 3053) ([2]; strain GC 3053) | MIC Staphylococcus aureus (GC 4541) ([2]; strain GC 4541) | MIC Staphylococcus aureus-SMITH (GC 4543) ([2]; strain GC 4543) | MIC Staphylococcus aureus (GC 4544) ([2]; strain GC 4544) | MIC Staphylococcus aureus (GC 4545) ([2]; strain GC 4545) | MIC Staphylococcus haemolyticus (GC 4546) ([2]; strain GC 4546) | MIC Coagulase Negative Staphylococcus (GC 4549) ([2]; strain GC 4549) | MIC Coagulase Negative Staphylococcus (GC 4551) ([2]; strain GC 4551)
1 µg/mL: MIC Enterococcus avium (GC 4558) [1] | MIC Enterococcus faecalis (ATCC 29212) [1] | MIC Enterococcus faecalis (GC 2242) [1] | MIC Enterococcus faecalis (GC 2691) [1] | MIC Enterococcus faecalis (GC 3059) [1] | MIC Enterococcus faecalis (GC 4552) [1] | MIC Enterococcus faecalis (GC 4553) [1] | MIC Enterococcus faecalis (GC 4554) [1] | MIC Enterococcus faecalis (GC 6189) [1] | MIC Enterococcus faecium (GC 2243) [1] | MIC Enterococcus faecium (GC 4556) [1] | MIC Enterococcus faecium (GC 4557) [1] | MIC Enterococcus faecalis (ATCC 29212) ([1]; inoculum 5×10^5 CFU/mL, strain ATCC 29212) | MIC Enterococcus faecalis (GC 2242) ([1]; inoculum 5×10^5 CFU/mL, strain GC 2242) | MIC Enterococcus faecium (GC 2243) ([1]; inoculum 5×10^5 CFU/mL, strain GC 2243) | MIC Enterococcus faecalis (GC 2691) ([1]; inoculum 5×10^5 CFU/mL, strain GC 2691) | MIC Enterococcus faecalis (GC 3059) ([1]; inoculum 5×10^5 CFU/mL, strain GC 3059) | MIC Enterococcus faecalis (GC 4552) ([1]; inoculum 5×10^5 CFU/mL, strain GC 4552) | MIC Enterococcus faecalis (GC 4553) ([1]; inoculum 5×10^5 CFU/mL, strain GC 4553) | MIC Enterococcus faecalis (GC 4554) ([1]; inoculum 5×10^5 CFU/mL, strain GC 4554) | MIC Enterococcus faecium (GC 4556) ([1]; inoculum 5×10^5 CFU/mL, strain GC 4556) | MIC Enterococcus faecium (GC 4557) ([1]; inoculum 5×10^5 CFU/mL, strain GC 4557) | MIC Enterococcus avium (GC 4558) ([1]; inoculum 5×10^5 CFU/mL, strain GC 4558) | MIC Enterococcus faecalis (GC 6189) ([1]; inoculum 5×10^5 CFU/mL, strain GC 6189) | MIC Staphylococcus aureus (GC 1131) ([2]; inoculum 5×10^5 CFU/mL) | MIC Staphylococcus aureus (GC 1131) [2] | MIC Coagulase Negative Staphylococcus (GC 4547) ([2]; strain GC 4547) | MIC Escherichia coli (GC 4560) [4]
<0.12 µg/mL: MIC Coagulase Negative Staphylococcus (GC 4548) ([2]; strain GC 4548) | MIC Streptococcus agalactiae (GC 4564) [3] | MIC Streptococcus pneumoniae (ATCC 6301) [3] | MIC Streptococcus pneumoniae (GC 1894) [3] | MIC Streptococcus pneumoniae (GC 4565) [3] | MIC Streptococcus pyogenes (GC 4563) [3] | MIC Streptococcus pneumoniae (ATCC 6301) ([3]; inoculum 5×10^5 CFU/mL, strain ATCC 6301) | MIC Streptococcus pneumoniae (GC 1894) ([3]; inoculum 5×10^5 CFU/mL, strain GC 1894) | MIC Streptococcus pyogenes (GC 4563) ([3]; inoculum 5×10^5 CFU/mL, strain GC 4563) | MIC Streptococcus agalactiae (GC 4564) ([3]; inoculum 5×10^5 CFU/mL, strain GC 4564) | MIC Streptococcus pneumoniae (GC 4565) ([3]; inoculum 5×10^5 CFU/mL, strain GC 4565)
0.25 µg/mL: MIC Staphylococcus aureus (GC 4542) ([2]; strain GC 4542)
